{
  "source": "patent US6472351B1",
  "about": "“Herbicide” (Barrier Biotech Limited, priority 1998, dated 2002)",
  "test_system": "ragwort",
  "assay": "Replicated field trials 1997, ragwort control 0-10 score versus 2,4-D (Example 3)",
  "type": "in vivo, Senecio Jacobaea",
  "conditions": "for 0-10 Score, 0 = No Control; T1 + 42 / 0-10 Score, 0 = No Control; T1 + 14 / 0-10 Score, 0 = No Control; T1 + 28 / 0-10 Score, 0 = No Control; T1 + 1 / 0-10 Score, 0 = No Control; T1 + 7: l/ha 2,4-D standard; for 0-10 Score, 0 = No Control; T1 + 42: scored 02/09/97; for 0-10 Score, 0 = No Control; T1 + 28: scored 19/08/97",
  "protocol": "In 1997 properly replicated field evaluations of the efficacy of the composition according to the invention as a herbicide were carried out and 3 trial sites were located where the composition was tested against the standard product, 2, 4-D applied at a dose of 3.0 l/ha to individual plants. The trials were designed as a randomised complete block but within each “plot” area, 10 ragwort plants for each growth stage (rosette & flowing stems) were tagged with numbered markers and these were treated with the appropriate compound. […] This method reduced the risk of excessive run-off if eight squirts had been applied in a single application. […] As with the larger plants in the laboratory tests, some degree of re-growth was noted on a few of the treated plants. After the last assessments had been made, some of these plants were retreated with a second application of BH 99 and the effect was compared with untreated plants after a further 4 weeks which data is presented in the results section below.\nIn all evaluations the composition BH 99 was used comprising:\nwas applied to plants using the same equipment. The ready-mixed formulated product was contained in a 5 liter polyethylene bottle to which was fitted with a Frapak CHS-5A trigger sprayer and dip tube. This equipment delivers 2.4 mls of spray for each full squeeze of the trigger and provides a very convenient method of application.\nIn the replicated field trials in 1997, the 2, 4-D treatments were applied using a Hardy (backpack) small plot sprayer fitted with a lance carrying a single F110-03 nozzle. Individual plants were sprayed at a forward speed of 1.6 m/s and a pressure of 2 bar to give an application volume of 200 l/ha. Dose of 2, 4-D applied by this method was 3.0 l/ha.\nReplicated Field Trials, 1997: The efficacy of BH 99 was tested against ragwort at the rosette and flowering stages at Shropham and Barnham sites but only against the rosette stage at Hockham since no flowering stems were presented.",
  "key": {"[1]": {"conditions": "Barnham, Flower, applied T1 23/07/97"}, "[2]": {"conditions": "Barnham, Rosette, applied T1 23/07/97"}, "[3]": {"conditions": "Hockham, Rosette, applied T1 25/07/97"}, "[4]": {"conditions": "flowering stage, standard at 3.0 l/ha, mean of n = 2 sites, 0-10 score"}, "[5]": {"conditions": "rosette stage, standard at 3.0 l/ha, mean of n = 3 sites, 0-10 score"}},
  "data": [
    {"compound": "O=C(O)COc1ccc(Cl)cc1Cl", "note": "[2,4-D, 2,4-D]", "values": [
      {"measurement": "Time until full activity manifest", "setting": "3.0 l/ha, days after application", "value": 42, "unit": "days"},
      {"measurement": "0-10 Score, 0 = No Control; T1 + 42", "setting": "[1]", "value": 9.4},
      {"measurement": "0-10 Score, 0 = No Control; T1 + 14", "setting": "Barnham, Flower, applied T1 23/07/97, scored 08/08/97", "value": 7.3},
      {"measurement": "0-10 Score, 0 = No Control; T1 + 28", "setting": "[1]", "value": 8.9},
      {"measurement": "0-10 Score, 0 = No Control; T1 + 1", "setting": "Barnham, Flower, applied T1 23/07/97, scored 24/07/97", "value": 0.3},
      {"measurement": "0-10 Score, 0 = No Control; T1 + 7", "setting": "Barnham, Flower, applied T1 23/07/97, scored 30/07/97", "value": 1},
      {"measurement": "0-10 Score, 0 = No Control; T1 + 42", "setting": "[2]", "value": 9.9},
      {"measurement": "0-10 Score, 0 = No Control; T1 + 14", "setting": "Barnham, Rosette, applied T1 23/07/97, scored 08/08/97", "value": 4.8},
      {"measurement": "0-10 Score, 0 = No Control; T1 + 28", "setting": "[2]", "value": 9.1},
      {"measurement": "0-10 Score, 0 = No Control; T1 + 1", "setting": "Barnham, Rosette, applied T1 23/07/97, scored 24/07/97", "value": 0.1},
      {"measurement": "0-10 Score, 0 = No Control; T1 + 7", "setting": "Barnham, Rosette, applied T1 23/07/97, scored 30/07/97", "value": 0.8},
      {"measurement": "0-10 Score, 0 = No Control; T1 + 7", "setting": "Hockham, Rosette, applied T1 25/07/97, scored 01/08/97", "value": 0.4},
      {"measurement": "0-10 Score, 0 = No Control; T1 + 42", "setting": "[3]", "value": 9.8},
      {"measurement": "0-10 Score, 0 = No Control; T1 + 14", "setting": "Hockham, Rosette, applied T1 25/07/97, scored 07/08/97", "value": 0.8},
      {"measurement": "0-10 Score, 0 = No Control; T1 + 28", "setting": "[3]", "value": 5.2},
      {"measurement": "0-10 Score, 0 = No Control; T1 + 1", "setting": "Hockham, Rosette, applied T1 25/07/97, scored 26/07/97", "value": 0.1},
      {"measurement": "Mean Score for Ragwort Control When Treated at the Flowering Stage, 1 DAT", "setting": "[4]", "value": 0.3},
      {"measurement": "Mean Score for Ragwort Control When Treated at the Flowering Stage, 7 DAT", "setting": "[4]", "value": 0.8},
      {"measurement": "Mean Score for Ragwort Control When Treated at the Flowering Stage, 14 DAT", "setting": "[4]", "value": 4.9},
      {"measurement": "Mean Score for Ragwort Control When Treated at the Flowering Stage, 28 DAT", "setting": "[4]", "value": 7.4},
      {"measurement": "Mean Score for Ragwort Control When Treated at the Flowering Stage, 42 DAT", "setting": "[4]", "value": 8.4},
      {"measurement": "Mean Score for Ragwort Control When Treated at the Rossette Stage, 1 DAT", "setting": "[5]", "value": 0.1},
      {"measurement": "Mean Score for Ragwort Control When Treated at the Rossette Stage, 7 DAT", "setting": "[5]", "value": 0.5},
      {"measurement": "Mean Score for Ragwort Control When Treated at the Rossette Stage, 14 DAT", "setting": "[5]", "value": 2.1},
      {"measurement": "Mean Score for Ragwort Control When Treated at the Rossette Stage, 28 DAT", "setting": "[5]", "value": 6.9},
      {"measurement": "Mean Score for Ragwort Control When Treated at the Rossette Stage, 42 DAT", "setting": "[5]", "value": 9.4}
    ]}
  ]
}
